Experimental data from patent US9051310B2, “Nicotinamide derivative or salt thereof” (FUJIFILM Corporation, priority 2011, dated 2015).
pIC50: −log10 of the molar value.

Tests used:
[1] = biological target: T1, glutathione S-transferase (GST)-linked full-length human Syk protein (Homo sapiens, UniProt P43405); experiment: Syk enzyme assay; assay type: biochemical; conditions: 0.83 nM Syk, time-resolved fluorescence; read-out: IC50 of Syk-inhibitory activity
T1 construct: glutathione S-transferase (GST)-linked full-length human Syk protein; purchased Carna Biosciences; host or cells: Baculovirus expression system
Summary of the method: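 Phosphotyrosine on a biotin-peptide substrate (0.5 μM) was read by time-resolved fluorescence at 615 and 665 nm with Eu-anti-pTyr antibody and APC-streptavidin after 1 h EDTA stop.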

[2] = tested on: THP-1 cells (TNFα secretion on human IgG-coated plate); experiment: TNFα generation assay; assay type: cell-based; conditions: IFN-γ differentiated THP-1 cells, 7 hours, AlphaLISA, read-out: IC50 of TNFα generation inhibitory activity
Summary of the method: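 THP-1 cells were differentiated with 10 ng/ml IFN-γ for 2 days, then preincubated with compound for 30 min at room temperature. They were then plated at 5×10^4 cells/well on plates coated with human IgG (10 μg/ml). TNFα secreted over 7 h of culture was quantified by AlphaLISA.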

Compound	pIC50 [1]	pIC50 [2]
COc1ncc(Nc2nc(N[C@@H]3CCOC[C@@H]3N)c(F)cc2C(N)=O)cc1-n1ccnn1 [Example 2-215, 6-(((3R,4R)-3-aminotetrahydro-2H-pyran-4-yl)amino)-5-fluoro-2-((6-methoxy-5-(1H-1,2,3-triazol-1-yl)pyridin-3-yl)amino)nicotinamide]	7.30 to 8.00	6.70 to 6.89
Cc1ccc(Nc2nc(N[C@@H]3CCOC[C@@H]3N)c(F)cc2C(N)=O)cn1 [Example 2-219, 6-(((3R,4R)-3-aminotetrahydro-2H-pyran-4-yl)amino)-5-fluoro-2-((6-methylpyridin-3-yl)amino)nicotinamide]	7.30 to 8.00	6.70 to 6.89
Cc1ncc(Nc2nc(N[C@H](C3CC3)[C@H](C)N)c(F)cc2C(N)=O)cc1F [Example 2-220, 6-(((1R,2S)-2-amino-1-cyclopropylpropyl)amino)-5-fluoro-2-((5-fluoro-6-methylpyridin-3-yl)amino)nicotinamide]	7.30 to 8.00	6.70 to 6.89
CC[C@@H](Nc1nc(Nc2cnc(C)c(F)c2)c(C(N)=O)cc1F)[C@H](C)N [Example 2-222, 6-(((2S,3R)-2-aminopentan-3-yl)amino)-5-fluoro-2-((5-fluoro-6-methylpyridin-3-yl)amino)nicotinamide]	7.30 to 8.00	6.70 to 6.89
CCC[C@@H](Nc1nc(Nc2cnc(C)c(F)c2)c(C(N)=O)cc1F)[C@H](C)N [Example 2-223, 6-(((2S,3R)-2-aminohexan-3-yl)amino)-5-fluoro-2-((5-fluoro-6-methylpyridin-3-yl)amino)nicotinamide]	> 8.00	6.70 to 6.89
Cc1ncc(Nc2nc(N[C@@H]3CCOC[C@@H]3N)c(F)cc2C(N)=O)cc1F [Example 2-225, 6-(((3R,4R)-3-aminotetrahydro-2H-pyran-4-yl)amino)-5-fluoro-2-((5-fluoro-6-methylpyridin-3-yl)amino)nicotinamide]	7.30 to 8.00	6.70 to 6.89
COc1cc(Nc2nc(N[C@H](C)[C@@H](N)C3CC3)c(F)cc2C(N)=O)cc(OC)c1 [Example 2-229, 6-(((1S,2R)-1-amino-1-cyclopropylpropan-2-yl)amino)-2-((3,5-dimethoxyphenyl)amino)-5-fluoronicotinamide]	7.30 to 8.00	6.70 to 6.89
CCn1ncc2cc(Nc3nc(N[C@H](C)[C@@H](N)C4CC4)c(F)cc3C(N)=O)ccc21 [Example 2-230, 6-(((1S,2R)-1-amino-1-cyclopropylpropan-2-yl)amino)-2-((1-ethyl-1H-indazol-1-5-yl)amino)-5-fluoronicotinamide]	7.30 to 8.00	6.89 to 7.19
C[C@H](N)[C@H](Nc1nc(Nc2ccnc(N3CCOCC3)c2F)c(C(N)=O)cc1F)C1CC1 [Example 2-233, 6-(((1R,2S)-2-amino-1-cyclopropylpropyl)amino)-5-fluoro-2-((3-fluoro-2-morpholinopyridin-4-yl)amino)nicotinamide]	7.30 to 8.00	6.70 to 6.89
Cc1nn(C)c2ncc(Nc3nc(N[C@@H]4CCCC[C@@H]4N)c(F)cc3C(N)=O)cc12 [Example 2-239, 6-(((1R,2S)-2-aminocyclohexyl)amino)-2-((1,3-dimethyl-1H-pyrazolo[3,4-b]pyridin-5-yl)amino)-5-fluoronicotinamide]	7.30 to 8.00	6.70 to 6.89
Cc1nn(C)c2ncc(Nc3nc(N[C@@H](CN)CC(C)C)c(F)cc3C(N)=O)cc12 [Example 2-240, (R)-6-((1-amino-4-methylpentan-2-yl)amino)-2-((1,3-dimethyl-1H-pyrazolo[3,4-b]pyridin-5-yl)amino)-5-fluoronicotinamide]	> 8.00	6.70 to 6.89
CCC[C@@H](Nc1nc(Nc2cnc3c(c2)c(C)nn3C)c(C(N)=O)cc1F)[C@H](C)N [Example 2-242, 6-(((2S,3R)-2-aminohexan-3-yl)amino)-2-((1,3-dimethyl-1H-pyrazolo[3,4-b]pyridin-5-yl)amino)-5-fluoronicotinamide]	7.30 to 8.00	6.70 to 6.89
Cc1nn(C)c2ncc(Nc3nc(N[C@H](C4CC4)[C@H](C)N)c(F)cc3C(N)=O)cc12 [Example 2-243, 6-(((1R,2S)-2-amino-1-cyclopropylpropyl)amino)-2-((1,3-dimethyl-1H-pyrazolo[3,4-b]pyridin-5-yl)amino)-5-fluoronicotinamide]	7.30 to 8.00	6.70 to 6.89
COc1nn(C)c2ncc(Nc3nc(N[C@@H]4CCCC[C@@H]4N)c(F)cc3C(N)=O)cc12 [Example 2-249, 6-(((1R,2S)-2-aminocyclohexyl)amino)-5-fluoro-2-((3-methoxy-1-methyl-1H-pyrazolo[3,4-b]pyridin-5-yl)amino)nicotinamide]	> 8.00	6.89 to 7.19
COc1nn(C)c2ncc(Nc3nc(N[C@H](C4CC4)[C@H](C)N)c(F)cc3C(N)=O)cc12 [Example 2-253, 6-(((1R,2S)-2-amino-1-cyclopropylpropyl)amino)-5-fluoro-2-((3-methoxy-1-methyl-1H-pyrazolo[3,4-b]pyridin-5-yl)amino)nicotinamide]	> 8.00	6.89 to 7.19
CCCC[C@@H](Nc1nc(Nc2cnc3c(c2)c(OC)nn3C)c(C(N)=O)cc1F)[C@H](C)N [Example 2-254, 6-(((2S,3R)-2-aminoheptan-3-yl)amino)-5-fluoro-2-((3-methoxy-1-methyl-1H-pyrazolo[3,4-b]pyridin-5-yl)amino)nicotinamide]	> 8.00	6.70 to 6.89
COc1nn(C)c2ncc(Nc3nc(N[C@H](CC(C)C)[C@H](C)N)c(F)cc3C(N)=O)cc12 [Example 2-255, 6-(((2S,3R)-2-amino-5-methylhexan-3-yl)amino)-5-fluoro-2-((3-methoxy-1-methyl-1H-pyrazolo[3,4-b]pyridin-5-yl)amino)nicotinamide]	> 8.00	6.70 to 6.89
CC[C@H](N)[C@@H](CC)Nc1nc(Nc2ccc3c(cnn3CCOC)c2)c(C(N)=O)cc1F [Example 2-266, 6-(((3R,4S)-4-aminohexan-3-yl)amino)-5-fluoro-2-((1-(2-methoxyethyl)-1H-indazol-5-yl)amino)nicotinamide]	> 8.00	6.89 to 7.19
CCOC[C@@H](Nc1nc(Nc2cc(OC)cc(OC)c2)c(C(N)=O)cc1F)[C@H](C)N [Example 2-268, 6-(((2S,3S)-3-amino-1-ethoxybutan-2-yl)amino)-2-((3,5-dimethoxyphenyl)amino)-5-fluoronicotinamide]	7.30 to 8.00	6.70 to 6.89
COc1cc(Nc2nc(N[C@H](c3ccc(F)cc3)[C@H](C)N)c(F)cc2C(N)=O)cc(OC)c1 [Example 2-269, 6-(((1R,2S)-2-amino-1-(4-fluorophenyl)propyl)amino)-2-((3,5-dimethoxyphenyl)amino)-5-fluoronicotinamide]	> 8.00	6.89 to 7.19
CNc1ncc(Nc2nc(N[C@@H]3CCCC[C@@H]3N)c(F)cc2C(N)=O)cc1F [Example 2-273, 6-(((1R,2S)-2-aminocyclohexyl)amino)-5-fluoro-2-((5-fluoro-6-(methylamino)pyridin-3-yl)amino)nicotinamide]	> 8.00	6.89 to 7.19
CNc1ncc(Nc2nc(N[C@H](C3CC3)[C@H](C)N)c(F)cc2C(N)=O)cc1F [Example 2-274, 6-(((1R,2S)-2-amino-1-cyclopropylpropyl)amino)-5-fluoro-2-((5-fluoro-6-(methylamino)pyridin-3-yl)amino)nicotinamide]	7.30 to 8.00	6.70 to 6.89
CC[C@H](N)[C@@H](C)Nc1nc(Nc2cccc3c2cnn3CCOC)c(C(N)=O)cc1F [Example 2-311, 6-(((2R,3S)-3-aminopentan-2-yl)amino)-5-fluoro-2-((1-(2-methoxyethyl)-1H-indazol-4-yl)amino)nicotinamide]	> 8.00	6.70 to 6.89
COCCn1nc(C)c2cc(Nc3nc(N[C@@H]4CCOC[C@@H]4N)c(F)cc3C(N)=O)ccc21 [Example 2-327, 6-(((3R,4R)-3-aminotetrahydro-2H-pyran-4-yl)amino)-5-fluoro-2-((1-(2-methoxyethyl)-3-methyl-1H-indazol-5-yl)amino)nicotinamide]	> 8.00	6.70 to 6.89
COCCn1nc(OC)c2cc(Nc3nc(N[C@@H]4CCOC[C@@H]4N)c(F)cc3C(N)=O)ccc21 [Example 2-329, 6-(((3R,4R)-3-aminotetrahydro-2H-pyran-4-yl)amino)-5-fluoro-2-((3-methoxy-1-(2-methoxyethyl)-1H-indazol-5-yl)amino)nicotinamide]	> 8.00	6.89 to 7.19
COc1nn(C)c2ncc(Nc3nc(N[C@@H]4CCOC[C@@H]4N)c(F)cc3C(N)=O)cc12 [Example 2-334, 6-(((3R,4R)-3-aminotetrahydro-2H-pyran-4-yl)amino)-5-fluoro-2-((3-methoxy-1-methyl-1H-pyrazolo[3,4-b]pyridin-5-yl)amino)nicotinamide]	> 8.00	6.70 to 6.89
CC[C@H](N)[C@H](Nc1nc(Nc2ccc3c(cnn3CC)c2)c(C(N)=O)cc1F)C1CC1 [Example 2-362]	> 8.00	6.89 to 7.19
CC[C@H](N)[C@H](Nc1nc(Nc2cncc(-n3cccn3)c2)c(C(N)=O)cc1F)C1CC1 [Example 2-366, 2-((5-(1H-pyrazol-1-yl)pyridin-3-yl)amino)-6-(((1R,2S)-2-amino-1-cyclopropylbutyl)amino)-5-fluoronicotinamide]	7.30 to 8.00	6.70 to 6.89
CCn1ncc2c(Nc3nc(N[C@@H]4CCOC[C@@H]4N)c(F)cc3C(N)=O)cc(F)cc21 [Example 2-370, 6-(((3R,4R)-3-aminotetrahydro-2H-pyran-4-yl)amino)-2-((1-ethyl-6-fluoro-1H-indazol-4-yl)amino)-5-fluoronicotinamide]	> 8.00	6.70 to 6.89
